Results from patent US20080014585A1, “SYNERGISTIC ACTIVATION OF REGULATORY ELEMENTS BY REL PROTEINS AND A STEROID RECEPTOR” (N.V. Organon, priority 2000, published 2008).
Entries after “also recorded” stand apart in the source; their conditions may differ.

How the values were obtained:
[1] = system: classical ERE; conditions: transactivation experiments, reference 22; cited from earlier work
[2] = molecular target: ERα (Homo sapiens, UniProt P03372); conditions: cited from earlier work
[3] = molecular target: T1, human ERα (Homo sapiens, UniProt P03372); assay: 5-HT1A receptor promoter (-901luc) luciferase reporter, COS-1 cells cotransfected with NF-κB (p50, p65) and ERα; type: cell-based
T1 construct: expressed in transfected cells; host or cells: COS-1 (monkey)
T1 sequence (P03372 1-595): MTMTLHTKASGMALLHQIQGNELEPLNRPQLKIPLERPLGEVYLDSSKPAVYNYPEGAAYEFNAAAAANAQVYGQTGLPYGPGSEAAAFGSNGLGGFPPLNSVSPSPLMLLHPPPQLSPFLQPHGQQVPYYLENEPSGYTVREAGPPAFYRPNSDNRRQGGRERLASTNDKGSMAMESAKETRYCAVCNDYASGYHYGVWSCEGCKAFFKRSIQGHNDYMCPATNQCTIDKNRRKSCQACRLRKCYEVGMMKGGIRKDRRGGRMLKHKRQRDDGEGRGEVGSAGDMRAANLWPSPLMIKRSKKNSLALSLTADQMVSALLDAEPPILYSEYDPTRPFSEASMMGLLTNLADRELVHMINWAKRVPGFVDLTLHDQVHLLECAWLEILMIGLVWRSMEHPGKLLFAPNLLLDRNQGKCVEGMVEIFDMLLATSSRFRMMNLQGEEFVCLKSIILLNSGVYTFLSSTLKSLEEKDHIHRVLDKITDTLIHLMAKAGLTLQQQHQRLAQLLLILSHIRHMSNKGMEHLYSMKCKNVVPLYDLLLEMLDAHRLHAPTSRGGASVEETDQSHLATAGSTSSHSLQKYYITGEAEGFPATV
Excerpt: Depicted is the induction of luciferase activity evoked by NF-κB over cells transfected with empty expression vector. Bars represent the mean of at least three independent experiments ±S.D. (B) COS-1 cells were transiently transfected with 4×NF-κ B(HIV)tkluc in combination with empty expression vector or expression vectors encoding the p50 and p65 subunits of NF-κB and expression vectors encoding ERα or ERβ. Cells were either untreated (white bars) or treated with 10^−8 M E2 (black bars) for 24 h. Depicted is the induction of luciferase activity evoked by NF-κB over cells transfected with empty expression vector. Bars represent the mean of at least three independent experiments ±S.D.
(A) COS-1 cells were transiently transfected with the −901luc reporter construct together with empty expression vector or expression vectors encoding the p50 and p65 subunits of NF-κB in combination with expression vectors encoding ERα and treated with E2, OH-T or ICI for 24 h as indicated. Depicted is the induction of luciferase activity evoked by NF-κB over cells transfected with empty expression vector. Bars represent the mean of at least three independent experiments ±S.D. FIG. 4. […] Depicted is the induction of luciferase activity evoked by the NF-κB subunits over cells transfected with empty expression vector. Bars represent the mean of at least three independent experiments ±S.D.
Cell Culture. […]

## 4-hydroxytamoxifen
[1]
  transcription of genes regulated by a classical ERE: inhibited transcription
[2]
  transcription of genes under the control of an AP-1 element with ERα: activated
[3]
  enhancement of 5-HT1A receptor promoter activity by ERα and NF-κB: further induced; also recorded: as potent as E2
